Measurements published in patent US7626077B2, “Glyphosate-resistant plants” (Mertec LLC, priority 2002, dated 2009).

How the values were obtained:
[1] = system: cultured immature corn embryos transformed with SEQ ID NO: 6; assay: Selection of beamed corn embryos on glyphosate-containing medium; type: cell-based, Zea mays; conditions: 540 mg/l glyphosate, DN62540RR medium, aerosol beam transformation with SEQ ID NO: 6
Description: The Cla I and Eco RV fragment (SEQ ID NO: 6) of HCEM was introduced into cultured immature corn embryos using an aerosol beam injector according to U.S. patent application Ser. No. 09/450,226. The Cia I-Eco RV fragment comprised the glyphosate-resistant EPSPS coding sequence.
Selection was carried out as follows: the beamed embryos were allowed to remain on DN62A0S20G medium for 5 days.
The beamed embryos were then transferred to DN62A100RR—a medium containing 100 mg/l glyphosate. After two 14-day passages on DN62A100RR, actively growing tissue is transferred to DN62A300RR medium which contains 300 mg/l (Table 3). After two 14-day passages on this medium, tissue was finally transferred to DN62540RR medium which contains 540 mg/i glyphosate (Table 3). […] Regeneration is carried out as described in U.S. patent application Ser. No. 09/450,226.

[2] = system: co-cultivated corn embryos; assay: Selection of Agrobacterium co-cultivated corn embryos on glyphosate-containing medium; type: cell-based, Zea mays; conditions: 540 mg/l glyphosate, DN62540RR medium, Agrobacterium-mediated DNA delivery
Description: Transformation can also be accomplished using Agrobacterium-mediated DNA delivery. In this case, the transformation and regeneration are performed according to the methods as described in U.S. patent application Ser. No. 09/203,679, which is herein incorporated by reference. Briefly, after culturing on DN62A0S20GLC (Table 2) for five days, co-cultivated embryos are transferred to DN62ALC180RR medium which contains 180 mg/l glyphosate (Table 3). After two 14-day passages on this medium, actively growing tissue is transferred to DN62540RR medium containing 540 mg/l glyphosate (Table 3). […] Regeneration is carried out as described in U.S. Ser. No. 09/203,679.

[3] = system: regenerated soybean plants transformed with mutant epm1 and/or mutant epm2; assay: Glyphosate spray of regenerated transgenic soybean plants and progenies; type: in vivo; conditions: sprayed at commercial rates, greenhouse
Description: The Bam HI/Sac II fragment (SEQ ID NO: 2) of epm1 vector and the Eco RI fragment (SEQ ID NO: 4) of epm2 vector were used to transform soybean embryogenic callus using an aerosol beam injector as described in U.S. patent application Ser. No. 09/450,226, which is incorporated herein by reference. These fragments comprised mutant epm1 and mutant epm2 which encode (putative) glyphosate-resistant EPSPSs. These fragments were used either alone or, preferably, together.
The transformed tissue is selected for glyphosate resistance using the method described below. First, the beamed embryogenic callus is maintained for one month on B1-30 3Co5My0.01PA medium.
The tissue is then transferred to the same medium but now containing 300 mg/l glyphosate. After a number of passages (up to 5 passages, each passage may last for about a month) on this latter medium, resistant clonal material may be identified. After an optional further few passages on B1-30 3Co5My0.01PA medium but containing 500 mg/l glyphosate, the growing tissue is transferred to a regeneration media as described in U.S. Pat. Ser. No. 09/450,226. Regenerated plants are transferred to pots in a greenhouse. […] Progenies are expected to 3:1 for glyphosate resistance as would be expected for Mendelian inheritance of a transgene.

O=C(O)CNCP(=O)(O)O [glyphosate, N-phosphonomethylglycine]
growth of stably transformed tissue on glyphosate medium [1]: continued growth | growth of stably transformed tissue on glyphosate medium [2]: continued growth | resistance of regenerated plants and progenies to glyphosate spray [3]: complete resistance
